Measurements from publication PMC7486443, “Generation of Phenothiazine with Potent Anti-TLK1 Activity for Prostate Cancer Therapy” (iScience, 2020).

Tests used:
Experiment in all cases: biochemical
Parameters in all cases: DiscoverX KINOMEscan scanMAX competition binding panel, single concentration, percent of control; remaining binding: dose or concentration left out as unconfirmed
Details in all cases: KINOMEscan binding, percent of control; read-out: Table S4_SCANMAX REPORT - related to Fig. 1 / Percent Control
HPK1 = biological target: T1, HPK1 (Homo sapiens, UniProt Q92918)
T1 construct: gene MAP4K1

HIPK3 = HIPK3 (Homo sapiens, UniProt Q9H422)
PIK3C2B = PIK3C2B (Homo sapiens, UniProt O00750)
Chain of PIK3C2B (O00750 whole entry): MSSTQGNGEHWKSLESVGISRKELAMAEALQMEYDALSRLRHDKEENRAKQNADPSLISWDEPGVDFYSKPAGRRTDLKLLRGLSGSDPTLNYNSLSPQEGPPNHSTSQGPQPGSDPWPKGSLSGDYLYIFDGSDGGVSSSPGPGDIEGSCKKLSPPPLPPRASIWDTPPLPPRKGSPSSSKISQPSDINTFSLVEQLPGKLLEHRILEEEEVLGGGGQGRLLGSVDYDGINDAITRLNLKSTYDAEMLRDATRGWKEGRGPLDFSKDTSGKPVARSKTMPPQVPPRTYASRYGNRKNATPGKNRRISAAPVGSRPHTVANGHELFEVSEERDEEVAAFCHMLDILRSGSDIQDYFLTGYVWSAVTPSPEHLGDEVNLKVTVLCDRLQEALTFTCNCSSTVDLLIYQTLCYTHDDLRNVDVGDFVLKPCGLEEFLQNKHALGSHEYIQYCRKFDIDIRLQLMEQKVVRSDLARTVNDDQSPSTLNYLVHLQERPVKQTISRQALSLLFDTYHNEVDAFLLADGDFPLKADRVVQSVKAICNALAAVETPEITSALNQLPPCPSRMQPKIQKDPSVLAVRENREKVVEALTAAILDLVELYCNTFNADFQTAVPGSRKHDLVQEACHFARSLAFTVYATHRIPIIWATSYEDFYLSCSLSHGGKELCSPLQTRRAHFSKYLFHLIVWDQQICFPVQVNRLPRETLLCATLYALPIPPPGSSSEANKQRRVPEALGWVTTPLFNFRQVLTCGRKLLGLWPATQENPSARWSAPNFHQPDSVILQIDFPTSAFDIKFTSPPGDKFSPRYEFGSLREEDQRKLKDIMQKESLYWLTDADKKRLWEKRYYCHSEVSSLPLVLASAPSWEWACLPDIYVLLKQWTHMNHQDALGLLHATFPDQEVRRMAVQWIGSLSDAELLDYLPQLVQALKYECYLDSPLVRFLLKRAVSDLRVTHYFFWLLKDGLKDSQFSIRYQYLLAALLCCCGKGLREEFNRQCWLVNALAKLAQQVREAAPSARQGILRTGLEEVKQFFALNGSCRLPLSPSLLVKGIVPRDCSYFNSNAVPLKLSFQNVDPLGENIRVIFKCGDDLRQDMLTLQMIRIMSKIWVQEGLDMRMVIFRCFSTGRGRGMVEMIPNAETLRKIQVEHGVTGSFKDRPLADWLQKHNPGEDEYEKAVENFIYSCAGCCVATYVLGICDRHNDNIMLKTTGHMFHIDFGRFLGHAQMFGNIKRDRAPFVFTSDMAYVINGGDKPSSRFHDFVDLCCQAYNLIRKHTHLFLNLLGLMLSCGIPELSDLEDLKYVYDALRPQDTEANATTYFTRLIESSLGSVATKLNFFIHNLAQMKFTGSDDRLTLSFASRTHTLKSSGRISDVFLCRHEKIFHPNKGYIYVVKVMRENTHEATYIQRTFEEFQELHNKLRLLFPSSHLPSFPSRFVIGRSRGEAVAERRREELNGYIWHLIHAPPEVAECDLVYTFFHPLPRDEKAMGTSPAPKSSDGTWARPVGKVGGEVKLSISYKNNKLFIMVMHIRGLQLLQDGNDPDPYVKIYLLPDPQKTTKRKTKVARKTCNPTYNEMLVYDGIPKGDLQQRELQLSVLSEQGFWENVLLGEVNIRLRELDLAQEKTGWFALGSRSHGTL

RIOK1 = RIOK1 (Homo sapiens, UniProt Q9BRS2)
ACVR1B = ACVR1B (Homo sapiens, UniProt P36896)
Chain of ACVR1B (P36896 whole entry): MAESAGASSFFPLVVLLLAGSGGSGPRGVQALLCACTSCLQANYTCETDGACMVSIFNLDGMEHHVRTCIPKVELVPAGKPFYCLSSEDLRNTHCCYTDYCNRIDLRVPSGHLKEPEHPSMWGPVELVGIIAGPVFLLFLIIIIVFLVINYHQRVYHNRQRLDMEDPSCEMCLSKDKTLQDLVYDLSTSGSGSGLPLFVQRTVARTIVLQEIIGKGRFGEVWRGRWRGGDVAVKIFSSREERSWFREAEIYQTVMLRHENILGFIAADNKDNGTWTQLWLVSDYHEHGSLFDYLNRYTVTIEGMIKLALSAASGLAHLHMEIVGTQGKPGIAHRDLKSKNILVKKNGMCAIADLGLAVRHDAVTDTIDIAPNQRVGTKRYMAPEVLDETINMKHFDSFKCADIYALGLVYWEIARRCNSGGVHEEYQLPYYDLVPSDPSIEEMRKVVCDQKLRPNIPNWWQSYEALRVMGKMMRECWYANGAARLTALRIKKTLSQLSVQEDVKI

CSNK1G3 = CSNK1G3 (Homo sapiens, UniProt Q9Y6M4)
Chain of CSNK1G3 (Q9Y6M4 whole entry): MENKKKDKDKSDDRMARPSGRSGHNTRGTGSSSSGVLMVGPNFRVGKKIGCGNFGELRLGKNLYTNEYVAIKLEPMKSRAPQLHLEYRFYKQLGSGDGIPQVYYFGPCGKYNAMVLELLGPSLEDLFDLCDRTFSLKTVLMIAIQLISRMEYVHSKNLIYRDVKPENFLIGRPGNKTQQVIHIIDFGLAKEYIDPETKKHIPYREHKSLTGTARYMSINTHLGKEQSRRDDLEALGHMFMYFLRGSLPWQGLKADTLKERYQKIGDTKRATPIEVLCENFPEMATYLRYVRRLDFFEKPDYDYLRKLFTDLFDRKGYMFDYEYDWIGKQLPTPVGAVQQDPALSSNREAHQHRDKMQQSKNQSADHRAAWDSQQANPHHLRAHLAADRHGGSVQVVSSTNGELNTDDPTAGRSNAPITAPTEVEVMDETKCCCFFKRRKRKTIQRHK

MAP4K3 = MAP4K3 (Homo sapiens, UniProt Q8IVH8)
Chain of MAP4K3 (Q8IVH8 whole entry): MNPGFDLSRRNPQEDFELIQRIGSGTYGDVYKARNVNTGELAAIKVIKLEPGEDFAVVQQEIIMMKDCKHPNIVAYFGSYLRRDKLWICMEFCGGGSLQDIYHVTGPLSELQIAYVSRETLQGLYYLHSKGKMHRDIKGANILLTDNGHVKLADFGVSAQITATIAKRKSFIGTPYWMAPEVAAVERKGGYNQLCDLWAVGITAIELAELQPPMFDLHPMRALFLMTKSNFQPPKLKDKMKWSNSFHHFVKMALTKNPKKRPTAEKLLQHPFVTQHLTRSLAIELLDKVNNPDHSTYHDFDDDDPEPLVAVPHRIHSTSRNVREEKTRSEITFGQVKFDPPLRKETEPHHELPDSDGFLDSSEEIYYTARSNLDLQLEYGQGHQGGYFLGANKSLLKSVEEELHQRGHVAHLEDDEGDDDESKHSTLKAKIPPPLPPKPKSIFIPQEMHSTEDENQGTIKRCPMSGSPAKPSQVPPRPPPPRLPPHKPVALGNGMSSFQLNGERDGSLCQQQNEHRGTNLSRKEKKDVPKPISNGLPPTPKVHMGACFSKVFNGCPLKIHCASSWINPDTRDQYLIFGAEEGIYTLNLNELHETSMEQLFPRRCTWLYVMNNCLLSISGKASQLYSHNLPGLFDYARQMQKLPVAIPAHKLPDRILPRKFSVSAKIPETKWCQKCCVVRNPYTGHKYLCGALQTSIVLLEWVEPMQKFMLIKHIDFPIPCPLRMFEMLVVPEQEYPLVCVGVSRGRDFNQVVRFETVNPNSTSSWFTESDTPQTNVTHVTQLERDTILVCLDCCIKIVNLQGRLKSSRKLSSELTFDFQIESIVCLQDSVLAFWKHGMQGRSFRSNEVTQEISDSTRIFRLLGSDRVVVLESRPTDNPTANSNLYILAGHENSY

CLK2 = CLK2 (Homo sapiens, UniProt P49760)
Chain of CLK2 (P49760 whole entry): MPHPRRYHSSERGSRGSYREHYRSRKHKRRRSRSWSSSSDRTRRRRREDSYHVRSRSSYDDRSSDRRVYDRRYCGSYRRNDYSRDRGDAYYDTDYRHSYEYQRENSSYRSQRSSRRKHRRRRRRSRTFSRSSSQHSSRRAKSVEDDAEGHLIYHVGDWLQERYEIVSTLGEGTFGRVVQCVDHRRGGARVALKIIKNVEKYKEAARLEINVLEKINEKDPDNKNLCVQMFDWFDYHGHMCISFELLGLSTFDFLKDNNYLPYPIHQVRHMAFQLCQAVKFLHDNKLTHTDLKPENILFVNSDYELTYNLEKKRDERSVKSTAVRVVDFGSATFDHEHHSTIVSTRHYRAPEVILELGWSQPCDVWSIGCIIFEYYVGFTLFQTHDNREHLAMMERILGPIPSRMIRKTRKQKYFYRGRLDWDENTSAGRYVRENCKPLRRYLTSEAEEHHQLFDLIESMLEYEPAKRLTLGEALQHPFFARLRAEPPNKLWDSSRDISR

YSK4 = biological target: T2, YSK4 (Homo sapiens, UniProt Q56UN5)
T2 construct: gene MAP3K19

WNK2 = WNK2 (Homo sapiens, UniProt Q9Y3S1)
MARK1 = MARK1 (Homo sapiens, UniProt Q9P0L2)
Chain of MARK1 (Q9P0L2 whole entry): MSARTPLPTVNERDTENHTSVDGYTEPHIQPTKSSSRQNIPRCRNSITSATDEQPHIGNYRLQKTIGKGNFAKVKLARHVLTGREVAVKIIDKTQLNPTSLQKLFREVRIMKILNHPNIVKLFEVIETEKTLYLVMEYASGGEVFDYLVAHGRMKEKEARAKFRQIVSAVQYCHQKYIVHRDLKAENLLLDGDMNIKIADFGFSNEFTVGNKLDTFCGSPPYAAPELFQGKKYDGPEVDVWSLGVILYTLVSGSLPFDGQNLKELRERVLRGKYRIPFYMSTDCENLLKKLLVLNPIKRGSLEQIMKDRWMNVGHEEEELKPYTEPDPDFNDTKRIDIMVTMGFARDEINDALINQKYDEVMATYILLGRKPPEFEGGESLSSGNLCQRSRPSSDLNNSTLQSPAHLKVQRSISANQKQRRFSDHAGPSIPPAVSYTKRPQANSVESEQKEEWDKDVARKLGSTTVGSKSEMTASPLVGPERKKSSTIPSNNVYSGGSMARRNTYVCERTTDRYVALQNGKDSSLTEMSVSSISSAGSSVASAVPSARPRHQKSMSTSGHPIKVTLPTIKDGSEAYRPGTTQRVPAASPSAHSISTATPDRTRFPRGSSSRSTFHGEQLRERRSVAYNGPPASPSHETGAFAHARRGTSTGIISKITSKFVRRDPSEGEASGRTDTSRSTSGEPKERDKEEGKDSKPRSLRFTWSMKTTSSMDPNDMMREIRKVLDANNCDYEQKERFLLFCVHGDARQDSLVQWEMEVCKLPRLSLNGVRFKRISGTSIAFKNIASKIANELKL

MAP3K2 = MAP3K2 (Homo sapiens, UniProt Q9Y2U5)
[1] = biological target: T3, TYK2(JH1domain-catalytic) (Homo sapiens, UniProt P29597)
T3 construct: JH1domain-catalytic

OSR1 = biological target: T4, OSR1 (Homo sapiens, UniProt O95747)
T4 construct: gene OXSR1

ERK5 = biological target: T5, ERK5 (Homo sapiens, UniProt Q13164)
T5 construct: gene MAPK7

MELK = MELK (Homo sapiens, UniProt Q14680)
MTOR = MTOR (Homo sapiens, UniProt P42345)
CAMK2D = CAMK2D (Homo sapiens, UniProt Q13557)
FGFR3(G697C) = FGFR3(G697C) (Homo sapiens, UniProt P22607, G697C)

c1ccc2c(c1)Sc1ccccc1N2CCN1CCOCC1 [J54]
remaining binding (HPK1): 100%
remaining binding (HIPK3): 100%
remaining binding (PIK3C2B): 96%
remaining binding (RIOK1): 59%
remaining binding (ACVR1B): 88%
remaining binding (CSNK1G3): 100%
remaining binding (MAP4K3): 100%
remaining binding (CLK2): 79%
remaining binding (YSK4): 86%
remaining binding (WNK2): 100%
remaining binding (MARK1): 94%
remaining binding (MAP3K2): 100%
remaining binding [1]: 100%
remaining binding (OSR1): 100%
remaining binding (ERK5): 100%
remaining binding (MELK): 84%
remaining binding at 15 µM (MTOR): 100%
remaining binding (CAMK2D): 100%
remaining binding (FGFR3(G697C)): 100%
